Where “and” joins values, the source holds several entries; their conditions need not be identical. Equal entries are not always repeated. Where two headings read alike, the source gives them in different places. Each block holds one compound with its values, some of them ahead of it.
What was measured:
DU-145 = experiment: SRB cell viability assay, docetaxel IC50 with/without wilforlide A pretreatment; assay type: cell-based; settings: for IC50: Homo sapiens
SkBr3-TxR = experiment: SRB cell viability assay, lapatinib with/without wilforlide A pretreatment; assay type: cell-based; settings: SkBr3-TxR; for A at 565 nm: background = 0.051
[1] = wilforlide A 2.5 μg/ml pre-Tx, read-out: Drug IC50 after wilforlide A pre-Tx
[2] = chemosensitization effect, wilforlide A 2.5 μg/ml pre-Tx
[3] = no wilforlide A pre-Tx, lapatinib 0.01 μM 72 h
[4] = no wilforlide A pre-Tx, lapatinib 0.2 μM 72 h
[5] = no wilforlide A pre-Tx, lapatinib 0.67 μM 72 h
[6] = no wilforlide A pre-Tx, lapatinib 2.0 μM 72 h
[7] = no wilforlide A pre-Tx, lapatinib 6.7 μM 72 h
[8] = no wilforlide A pre-Tx, lapatinib 20 μM 72 h
[9] = wilforlide A 2.5 μg/ml pre-Tx, lapatinib 0.01 μM 72 h
[10] = wilforlide A 2.5 μg/ml pre-Tx, lapatinib 0.067 μM 72 h
[11] = wilforlide A 2.5 μg/ml pre-Tx, lapatinib 0.2 μM 72 h
[12] = wilforlide A 2.5 μg/ml pre-Tx, lapatinib 0.67 μM 72 h
[13] = wilforlide A 2.5 μg/ml pre-Tx, lapatinib 2.0 μM 72 h
[14] = wilforlide A 2.5 μg/ml pre-Tx, lapatinib 6.7 μM 72 h

- IC50 (DU-145; 72 h, read-out: Drug IC50 no pre-Tx): > 0.1 µM
- IC50 (DU-145; [1]): 0.0425 µM
Structure (SMILES): CC(=O)O[C@@]12CO[C@@H]1C[C@H](O)[C@@]1(C)C(=O)[C@H](O)C3=C(C)[C@@H](OC(=O)[C@H](O)[C@@H](NC(=O)OC(C)(C)C)c4ccccc4)C[C@@](O)([C@@H](OC(=O)c4ccccc4)[C@H]21)C3(C)C [docetaxel]
- CE (DU-145; [2]): >2.35

Structure (SMILES): CS(=O)(=O)CCNCc1ccc(-c2ccc3ncnc(Nc4ccc(OCc5cccc(F)c5)c(Cl)c4)c3c2)o1 [lapatinib]
- viability at 0.001 µM (SkBr3-TxR; 72 h, no wilforlide A pre-Tx, lapatinib 0.001 μM 72 h): 100%
- viability at 0.01 µM (SkBr3-TxR; 72 h, no wilforlide A pre-Tx, lapatinib 0.01 μM 72 h): 101%
- viability at 0.067 µM (SkBr3-TxR; 72 h, no wilforlide A pre-Tx, lapatinib 0.067 μM 72 h): 96.6%
- viability at 0.2 µM (SkBr3-TxR; 72 h, no wilforlide A pre-Tx, lapatinib 0.2 μM 72 h): 90%
- viability at 0.67 µM (SkBr3-TxR; 72 h, no wilforlide A pre-Tx, lapatinib 0.67 μM 72 h): 85.6%
- viability at 2 µM (SkBr3-TxR; 72 h, no wilforlide A pre-Tx, lapatinib 2.0 μM 72 h): 73.5%
- viability at 6.7 µM (SkBr3-TxR; 72 h, no wilforlide A pre-Tx, lapatinib 6.7 μM 72 h): 61.6%
- viability at 20 µM (SkBr3-TxR; 72 h, no wilforlide A pre-Tx, lapatinib 20 μM 72 h): 42.6%
- viability at 0.001 µM (SkBr3-TxR; 72 h, wilforlide A 2.5 μg/ml pre-Tx, lapatinib 0.001 μM 72 h): 100%
- viability at 0.01 µM (SkBr3-TxR; 72 h, wilforlide A 2.5 μg/ml pre-Tx, lapatinib 0.01 μM 72 h): 89%
- viability at 0.067 µM (SkBr3-TxR; 72 h, wilforlide A 2.5 μg/ml pre-Tx, lapatinib 0.067 μM 72 h): 77.2%
- viability at 0.2 µM (SkBr3-TxR; 72 h, wilforlide A 2.5 μg/ml pre-Tx, lapatinib 0.2 μM 72 h): 69.1%
- viability at 0.67 µM (SkBr3-TxR; 72 h, wilforlide A 2.5 μg/ml pre-Tx, lapatinib 0.67 μM 72 h): 59.5%
- viability at 6.7 µM (SkBr3-TxR; 72 h, wilforlide A 2.5 μg/ml pre-Tx, lapatinib 6.7 μM 72 h): 40.7%
- viability at 20 µM (SkBr3-TxR; 72 h, wilforlide A 2.5 μg/ml pre-Tx, lapatinib 20 μM 72 h): 31.1%
- mean A (SkBr3-TxR; no wilforlide A pre-Tx, lapatinib 0.001 μM 72 h): 2.302
- mean A (SkBr3-TxR; [3]): 2.322
- A at 565 nm (SkBr3-TxR; [3]): 2.458
- mean A (SkBr3-TxR; no wilforlide A pre-Tx, lapatinib 0.067 μM 72 h): 2.222
- mean A (SkBr3-TxR; [4]): 2.071
- A at 565 nm (SkBr3-TxR; [4]): 1.945
- mean A (SkBr3-TxR; [5]): 1.970
- A at 565 nm (SkBr3-TxR; [5]): 1.871 and 1.990 and 2.048
- mean A (SkBr3-TxR; [6]): 1.692
- A at 565 nm (SkBr3-TxR; [6]): 1.609 and 1.759 and 1.708
- mean A (SkBr3-TxR; [7]): 1.418
- A at 565 nm (SkBr3-TxR; [7]): 1.426 and 1.445 and 1.384
- mean A (SkBr3-TxR; [8]): 0.980
- A at 565 nm (SkBr3-TxR; [8]): 0.958 and 1.024 and 0.957
- mean A (SkBr3-TxR; wilforlide A 2.5 μg/ml pre-Tx, lapatinib 0.001 μM 72 h): 2.265
- mean A (SkBr3-TxR; [9]): 2.016
- A at 565 nm (SkBr3-TxR; [9]): 1.817 and 1.976
- mean A (SkBr3-TxR; [10]): 1.748
- A at 565 nm (SkBr3-TxR; [10]): 1.344 and 1.909 and 1.992
- mean A (SkBr3-TxR; [11]): 1.564
- A at 565 nm (SkBr3-TxR; [11]): 1.299 and 1.540 and 1.854
- mean A (SkBr3-TxR; [12]): 1.347
- A at 565 nm (SkBr3-TxR; [12]): 1.127 and 1.398 and 1.517
- mean A (SkBr3-TxR; [13]): 1.140
- A at 565 nm (SkBr3-TxR; [13]): 0.987 and 1.095 and 1.339
- mean A (SkBr3-TxR; [14]): 0.922
- A at 565 nm (SkBr3-TxR; [14]): 0.794 and 0.932 and 1.040
- A at 565 nm (SkBr3-TxR; wilforlide A 2.5 μg/ml pre-Tx, lapatinib 20 μM 72 h): 0.731 and 0.673 and 0.706
- IC50 (SkBr3-TxR; [1]): 0.886 µM
- CE (SkBr3-TxR; [2]): 13
